In article PMC8617944, “Preclinical Pharmacokinetics and Acute Toxicity in Rats of 5-{[(2E)-3-Bromo-3-carboxyprop-2-enoyl]amino}-2-hydroxybenzoic Acid: A Novel 5-Aminosalicylic Acid Derivative with Potent Anti-Inflammatory Activity” (Molecules, 2021):
Where “and” joins values, the source holds several entries; their conditions need not be identical. Identical values can stand only once. Like-named read-outs stand apart in the source and are kept apart here.

Columns and labels:
[1] = Stability of stock solutions; type: physicochemical; conditions: 1000 μg/mL in acetonitrile-methanol (50:50, v/v), 2–4 °C
Description: Six stock solutions at 1000 μg/mL of C1 were prepared by dissolving 10 mg in a mixture of acetonitrile-methanol (50:50, v/v), adjusting the volume in a volumetric flask of 10 mL and storing the final solution at 2–4 °C. […] Calibration standards were prepared daily from the stock solution at concentrations of 0.1, 0.5, 1, 5, 10, 50, and 100 μg/mL, and calibration curves were constructed in triplicate by plotting known concentrations of the standard versus the detector response area (File S4).

[2] = Distribution of C1 in tissues; type: in vivo, Wistar rats; conditions: p.o. 75 mg/kg, 75 mg/kg; for concentration at 10 min / concentration at 30 min / concentration at 90 min / concentration at 3 h / concentration at 6 h: male, Wistar, rat, po
Description: Fifteen male Wistar rats were distributed in five groups (n = 3) and rats were orally administered C1 at a single dose of 75 mg/kg. Subsequently, a group of animals was sacrificed (n = 3) at 10, 30, 90, 180, and 360 min. […] All tissues and organs were weighed on an analytical balance and immediately processed. Each tissue sample was homogenized with saline solution in a 1:3 (wt/v) ratio. The preparation process for analysis was the same as described above for plasma samples [57] (File S8).

[3] = Small intestine, individual rats

With `O=C(/C=C(/Br)C(=O)O)Nc1ccc(O)c(C(=O)O)c1` [Compound C1, 5-{[(2E)-3-bromo-3-carboxyprop-2-enoyl]amino}-2-hydroxybenzoic acid] the “stability of stock solutions” value [1] was “stable for three months”, the “Concentration (µg/mL) at 30 minutes, Rat 1-3” value ([2]; Brain, individual rats) was 4.1 µg/mL and 3.2 µg/mL and the “Concentration (µg/mL) at 90 minutes, Rat 1-3” value ([2]; Brain, individual rats) was 3.3 µg/mL and 3.8 µg/mL. The “Concentration (µg/mL) at 3 h, Rat 1-3” value ([2]; Brain, individual rats) was 1.9 µg/mL and 3.2 µg/mL, the “Concentration (µg/mL) at 6 h, Rat 1-3” value ([2]; Brain, individual rats) was 3.0 µg/mL and the “Concentration (µg/mL) at 10 minutes, Rat 1-3” value ([2]; Colon, individual rats) was 7.5 µg/mL and 9.4 µg/mL. For the same compound, the “Concentration (µg/mL) at 30 minutes, Rat 1-3” value ([2]; Colon, individual rats) was 10.6 µg/mL and 8.5 µg/mL and 3.9 µg/mL, the “Concentration (µg/mL) at 90 minutes, Rat 1-3” value ([2]; Colon, individual rats) was 7.9 µg/mL and 6.8 µg/mL and the “Concentration (µg/mL) at 3 h, Rat 1-3” value ([2]; Colon, individual rats) was 3.6 µg/mL and 6.1 µg/mL and 7.5 µg/mL. For the same compound, the “Concentration (µg/mL) at 10 minutes, Rat 1-3” value ([2]; Hearth, individual rats) was 8.0 µg/mL and 1.3 µg/mL and 12.4 µg/mL, the “Concentration (µg/mL) at 30 minutes, Rat 1-3” value ([2]; Hearth, individual rats) was 4.4 µg/mL and 2.6 µg/mL and the “Concentration (µg/mL) at 90 minutes, Rat 1-3” value ([2]; Hearth, individual rats) was 3.9 µg/mL and 3.0 µg/mL. For the same compound, the “Concentration (µg/mL) at 3 h, Rat 1-3” value ([2]; Hearth, individual rats) was 2.2 µg/mL and 4.0 µg/mL, the “Concentration (µg/mL) at 10 minutes, Rat 1-3” value ([2]; Kidney, individual rats) was 14.1 µg/mL and 11.2 µg/mL and 22.6 µg/mL and the “Concentration (µg/mL) at 30 minutes, Rat 1-3” value ([2]; Kidney, individual rats) was 9.1 µg/mL and 5.4 µg/mL. For the same compound, the “Concentration (µg/mL) at 90 minutes, Rat 1-3” value ([2]; Kidney, individual rats) was 6.1 µg/mL and 4.7 µg/mL, the “Concentration (µg/mL) at 3 h, Rat 1-3” value ([2]; Kidney, individual rats) was 4.2 µg/mL and 3.3 µg/mL and 6.8 µg/mL and the “Concentration (µg/mL) at 10 minutes, Rat 1-3” value ([2]; Liver, individual rats) was 5.1 µg/mL and 4.4 µg/mL. The “Concentration (µg/mL) at 30 minutes, Rat 1-3” value ([2]; Liver, individual rats) was 7.2 µg/mL and 6.4 µg/mL, the “Concentration (µg/mL) at 90 minutes, Rat 1-3” value ([2]; Liver, individual rats) was 2.6 µg/mL and 5.6 µg/mL and 5.1 µg/mL and the “Concentration (µg/mL) at 3 h, Rat 1-3” value ([2]; Liver, individual rats) was 5.0 µg/mL and 2.6 µg/mL and 7.0 µg/mL. For the same compound, the “Concentration (µg/mL) at 10 minutes, Rat 1-3” value ([2]; Lung, individual rats) was 23.3 µg/mL and 6.2 µg/mL and 17.7 µg/mL, the “Concentration (µg/mL) at 30 minutes, Rat 1-3” value ([2]; Lung, individual rats) was 14.6 µg/mL and 6.7 µg/mL and 10.9 µg/mL and the “Concentration (µg/mL) at 90 minutes, Rat 1-3” value ([2]; Lung, individual rats) was 4.0 µg/mL and 13.3 µg/mL and 4.8 µg/mL. For the same compound, the “Concentration (µg/mL) at 3 h, Rat 1-3” value ([2]; Lung, individual rats) was 3.9 µg/mL and 7.9 µg/mL and 10.0 µg/mL, the “Concentration (µg/mL) at 30 minutes, Rat 1-3” value ([2]; Muscle, individual rats) was 4.0 µg/mL and the “Concentration (µg/mL) at 90 minutes, Rat 1-3” value ([2]; Muscle, individual rats) was 3.3 µg/mL and 3.6 µg/mL. The “Concentration (µg/mL) at 3 h, Rat 1-3” value ([2]; Muscle, individual rats) was 2.4 µg/mL and 2.6 µg/mL, the “Concentration (µg/mL) at 30 minutes, Rat 1-3” value [2, 3] was 18.3 µg/mL and 23.9 µg/mL and 4.9 µg/mL and the “Concentration (µg/mL) at 90 minutes, Rat 1-3” value [2, 3] was 14.1 µg/mL and 18.2 µg/mL. For the same compound, the “Concentration (µg/mL) at 3 h, Rat 1-3” value [2, 3] was 15.4 µg/mL and 14.9 µg/mL, the “Concentration (µg/mL) at 10 minutes, Rat 1-3” value ([2]; Spleen, individual rats) was 22.6 µg/mL and 42.7 µg/mL and the “Concentration (µg/mL) at 30 minutes, Rat 1-3” value ([2]; Spleen, individual rats) was 15.6 µg/mL and 15.0 µg/mL. For the same compound, the “Concentration (µg/mL) at 90 minutes, Rat 1-3” value ([2]; Spleen, individual rats) was 5.5 µg/mL and 17.1 µg/mL and 12.4 µg/mL, the “Concentration (µg/mL) at 3 h, Rat 1-3” value ([2]; Spleen, individual rats) was 10.4 µg/mL and 4.7 µg/mL and 11.1 µg/mL and the “Concentration (µg/mL) at 10 minutes, Rat 1-3” value ([2]; Stomach, individual rats) was 24.1 µg/mL and 10.3 µg/mL and 20.5 µg/mL. For the same compound, the “Concentration (µg/mL) at 30 minutes, Rat 1-3” value ([2]; Stomach, individual rats) was 13.0 µg/mL and 11.8 µg/mL and 5.8 µg/mL, the “Concentration (µg/mL) at 90 minutes, Rat 1-3” value ([2]; Stomach, individual rats) was 10.4 µg/mL and 8.4 µg/mL and 4.8 µg/mL and the “Concentration (µg/mL) at 3 h, Rat 1-3” value ([2]; Stomach, individual rats) was 3.7 µg/mL and 8.5 µg/mL and 7.1 µg/mL. For the same compound, the “Concentration (µg/mL) at 30 minutes, Rat 1-3” value ([2]; Testis, individual rats) was 4.8 µg/mL and 2.4 µg/mL, the “Concentration (µg/mL) at 90 minutes, Rat 1-3” value ([2]; Testis, individual rats) was 2.7 µg/mL and 5.8 µg/mL and 3.5 µg/mL and the “Concentration (µg/mL) at 3 h, Rat 1-3” value ([2]; Testis, individual rats) was 2.8 µg/mL and 3.2 µg/mL. It also gave a concentration at 10 min ([2]; brain, Brain, 10 min, n = 3, read-out: Average Concentration) of 3.7 µg/mL, a concentration at 30 min ([2]; brain, Brain, 30 min, n = 3, read-out: Average Concentration) of 3.5 µg/mL and a concentration at 90 min ([2]; brain, Brain, 90 min, n = 3, read-out: Average Concentration) of 3.4 µg/mL. For the same compound, the concentration at 3 h ([2]; brain, Brain, 3 h, n = 3, read-out: Average Concentration) was 2.8 µg/mL, the concentration at 6 h ([2]; brain, Brain, 6 h, n = 3, read-out: Average Concentration) was 2.5 µg/mL and the concentration at 10 min ([2]; brain, Brain, individual rats, read-out: Concentration (µg/mL) at 10 minutes, Rat 1-3) was 4.1 µg/mL. For the same compound, the concentration at 30 min ([2]; brain, Brain, individual rats, read-out: Concentration (µg/mL) at 30 minutes, Rat 1-3) was 3.2 µg/mL, the concentration at 90 min ([2]; brain, Brain, individual rats, read-out: Concentration (µg/mL) at 90 minutes, Rat 1-3) was 3.1 µg/mL and the concentration at 3 h ([2]; brain, Brain, individual rats, read-out: Concentration (µg/mL) at 3 h, Rat 1-3) was 3.2 µg/mL. For the same compound, the concentration at 6 h ([2]; brain, Brain, individual rats, read-out: Concentration (µg/mL) at 6 h, Rat 1-3) was 2.2 µg/mL, the concentration at 10 min ([2]; colon, Colon, 10 min, n = 3, read-out: Average Concentration) was 10.3 µg/mL and the concentration at 30 min ([2]; colon, Colon, 30 min, n = 3, read-out: Average Concentration) was 7.6 µg/mL. It also gave a concentration at 90 min ([2]; colon, Colon, 90 min, n = 3, read-out: Average Concentration) of 6.3 µg/mL, a concentration at 3 h ([2]; colon, Colon, 3 h, n = 3, read-out: Average Concentration) of 5.7 µg/mL and a concentration at 6 h ([2]; colon, Colon, 6 h, n = 3, read-out: Average Concentration) of 6 µg/mL. The concentration at 10 min ([2]; colon, Colon, individual rats, read-out: Concentration (µg/mL) at 10 minutes, Rat 1-3) was 14.2 µg/mL, the concentration at 90 min ([2]; colon, Colon, individual rats, read-out: Concentration (µg/mL) at 90 minutes, Rat 1-3) was 4.2 µg/mL and the concentration at 10 min ([2]; heart, Hearth, 10 min, n = 3, read-out: Average Concentration) was 7.2 µg/mL. For the same compound, the concentration at 30 min ([2]; heart, Hearth, 30 min, n = 3, read-out: Average Concentration) was 3.6 µg/mL, the concentration at 90 min ([2]; heart, Hearth, 90 min, n = 3, read-out: Average Concentration) was 3.2 µg/mL and the concentration at 3 h ([2]; heart, Hearth, 3 h, n = 3, read-out: Average Concentration) was 2.9 µg/mL.
